Laboratory results: article PMC10770013, “Antiproliferative polyketides from fungus Xylaria cf. Longipes SWUF08-81 in different culture media” (Natural Products and Bioprospecting, 2024)
Converted amounts (≈) assume the structure as drawn.

tested on: Vero cells; test: MTT assay, antiproliferative activity against Vero cells; type: cell-based, African green monkey; details: Chlorocebus sabaeus, 72 h, triplicate, mean ± SD, normal cells
Procedure: (§1) The antiproliferative activity was evaluated by MTT (3-(4,5-dimethylthiazol-2-yl)-2,5-diphenyl tetrazolium bromide) assay. Four cancer cell lines; human cervical carcinoma (HeLa), human colon carcinoma (HT29 and HCT116) and human breast carcinoma (MCF-7), along with African green monkey kidney cells (Vero cells) were seeded in 96-well plates (8000 cells/well) and cultured for 24 h, followed by being treated with the selected compounds at 100 µg/mL for 72 h. Following this, 10 μL of MTT reagent (5 mg/mL in phosphate buffer solution (PBS)) was added to each well and further incubated at 37 °C for 2 h. Then, 100 μL of DMSO (dimethyl sulfoxide) was used to dissolve the formazan dye. Finally, the absorbance of the solution was measured using a microplate reader (Bio-Rad Laboratories, Hercules, CA) at wavelengths of 550 and 655 nm. The absorbance at 655 nm was used as a reference wavelength. […] Cisplatin was used as the positive control drug.

Row | SMILES | IC50
1 | COc1cc2oc3cc(O)cc(O)c3c2c(C)c1O [Compound 1, 1,3,8-trihydroxy-7-methoxy-9-methyldibenzofuran] | 25 ± 0.63 µg/mL (≈ 96.1 µM)
2 | COC(=O)c1cc(OC)c(O)c2c1C[C@@H](C)OC2=O [Compound 2, (3R)-7-methoxy-5-methoxycarbonylmellein] | > 100 µg/mL
3 | C[C@@H]1Cc2cccc(O)c2C(=O)O1 [Compound 3, (−)-mellein] | > 100 µg/mL
4 | COC(=O)c1ccc(O)c2c1C[C@@H](C)OC2=O [Compound 4, (-)-5-methoxycarbonylmellein] | > 100 µg/mL
5 | C[C@@H]1Cc2c(C(=O)O)ccc(O)c2C(=O)O1 [Compound 5, (−)-5-carboxymellein] | > 100 µg/mL
6 | COc1cc(O)cc2c1C(=O)O[C@H](C[C@H]1CCC[C@@H](C)O1)C2 [Compound 15, (3S,2′R,6′R)-asperentin-8-O-methylether] | > 100 µg/mL

tested on: HT29; test: MTT assay, antiproliferative activity against HT29; type: cell-based, human; details: Homo sapiens, HT-29; MTT, 72 h, triplicate, mean ± SD
Procedure: as §1

Row | SMILES | IC50
7 | COc1cc2oc3cc(O)cc(O)c3c2c(C)c1O [Compound 1, 1,3,8-trihydroxy-7-methoxy-9-methyldibenzofuran] | 8.99 ± 1.96 µg/mL (≈ 34.5 µM)
8 | COC(=O)c1cc(OC)c(O)c2c1C[C@@H](C)OC2=O [Compound 2, (3R)-7-methoxy-5-methoxycarbonylmellein] | 96.4 ± 3.37 µg/mL (≈ 362 µM)
9 | C[C@@H]1Cc2cccc(O)c2C(=O)O1 [Compound 3, (−)-mellein] | > 100 µg/mL

Other lines, results leading:

Row | IC50 | SMILES
10 | > 100 µg/mL | COC(=O)c1ccc(O)c2c1C[C@@H](C)OC2=O [Compound 4, (-)-5-methoxycarbonylmellein]
11 | 72.6 ± 2 µg/mL (≈ 327 µM) | C[C@@H]1Cc2c(C(=O)O)ccc(O)c2C(=O)O1 [Compound 5, (−)-5-carboxymellein]
12 | 67.6 ± 6.99 µg/mL (≈ 221 µM) | COc1cc(O)cc2c1C(=O)O[C@H](C[C@H]1CCC[C@@H](C)O1)C2 [Compound 15, (3S,2′R,6′R)-asperentin-8-O-methylether]

same assay, conditions: MTT assay

Row | SMILES | toxicity in words, HT29
13 | C[C@@H]1Cc2c(C(=O)O)ccc(O)c2C(=O)O1 [Compound 5, (−)-5-carboxymellein] | slightly toxic
14 | COc1cc(O)cc2c1C(=O)O[C@H](C[C@H]1CCC[C@@H](C)O1)C2 [Compound 15, (3S,2′R,6′R)-asperentin-8-O-methylether] | slightly toxic

tested on: MCF-7; test: MTT assay, antiproliferative activity against MCF-7; type: cell-based, human; details: Homo sapiens, MCF7, 72 h, triplicate, mean ± SD
Procedure: as §1

Row | SMILES | IC50
15 | COc1cc2oc3cc(O)cc(O)c3c2c(C)c1O [Compound 1, 1,3,8-trihydroxy-7-methoxy-9-methyldibenzofuran] | 18.4 ± 0.99 µg/mL (≈ 70.7 µM)
16 | COC(=O)c1cc(OC)c(O)c2c1C[C@@H](C)OC2=O [Compound 2, (3R)-7-methoxy-5-methoxycarbonylmellein] | > 100 µg/mL
17 | C[C@@H]1Cc2cccc(O)c2C(=O)O1 [Compound 3, (−)-mellein] | > 100 µg/mL

The next lines start with the values.

Row | IC50 | SMILES
18 | > 100 µg/mL | COC(=O)c1ccc(O)c2c1C[C@@H](C)OC2=O [Compound 4, (-)-5-methoxycarbonylmellein]
19 | > 100 µg/mL | C[C@@H]1Cc2c(C(=O)O)ccc(O)c2C(=O)O1 [Compound 5, (−)-5-carboxymellein]
20 | > 100 µg/mL | COc1cc(O)cc2c1C(=O)O[C@H](C[C@H]1CCC[C@@H](C)O1)C2 [Compound 15, (3S,2′R,6′R)-asperentin-8-O-methylether]

tested on: not given; test: not given; details: not given

Row | melting point | SMILES
21 | 135 to 136 °C | COC(=O)c1cc(OC)c(O)c2c1C[C@@H](C)OC2=O [Compound 2, (3R)-7-methoxy-5-methoxycarbonylmellein]

tested on: cancer cell lines (HCT116, HT29, MCF-7 and HeLa); test: MTT assay, all four cancer cell lines together; type: cell-based, human; details: not given
Procedure: as §1

Row | SMILES | antiproliferative activity in words, all cancer cells
22 | COc1cc2oc3cc(O)cc(O)c3c2c(C)c1O [Compound 1, 1,3,8-trihydroxy-7-methoxy-9-methyldibenzofuran] | moderate anti-proliferation

tested on: HCT116; test: MTT assay, antiproliferative activity against HCT116; type: cell-based, human; details: Homo sapiens, HCT-116; MTT, 72 h, triplicate, mean ± SD
Procedure: as §1

Row | SMILES | IC50
23 | COc1cc2oc3cc(O)cc(O)c3c2c(C)c1O [Compound 1, 1,3,8-trihydroxy-7-methoxy-9-methyldibenzofuran] | 14.4 ± 0.87 µg/mL (≈ 55.2 µM)
24 | COC(=O)c1cc(OC)c(O)c2c1C[C@@H](C)OC2=O [Compound 2, (3R)-7-methoxy-5-methoxycarbonylmellein] | 92.9 ± 2.7 µg/mL (≈ 349 µM)
25 | C[C@@H]1Cc2cccc(O)c2C(=O)O1 [Compound 3, (−)-mellein] | > 100 µg/mL

Further lines, results first:

Row | IC50 | SMILES
26 | > 100 µg/mL | COC(=O)c1ccc(O)c2c1C[C@@H](C)OC2=O [Compound 4, (-)-5-methoxycarbonylmellein]
27 | 54.9 ± 3.35 µg/mL (≈ 247 µM) | C[C@@H]1Cc2c(C(=O)O)ccc(O)c2C(=O)O1 [Compound 5, (−)-5-carboxymellein]
28 | 45.1 ± 3.65 µg/mL (≈ 147 µM) | COc1cc(O)cc2c1C(=O)O[C@H](C[C@H]1CCC[C@@H](C)O1)C2 [Compound 15, (3S,2′R,6′R)-asperentin-8-O-methylether]

same assay, conditions: MTT assay

Row | SMILES | toxicity in words, HCT116
29 | C[C@@H]1Cc2c(C(=O)O)ccc(O)c2C(=O)O1 [Compound 5, (−)-5-carboxymellein] | slightly toxic
30 | COc1cc(O)cc2c1C(=O)O[C@H](C[C@H]1CCC[C@@H](C)O1)C2 [Compound 15, (3S,2′R,6′R)-asperentin-8-O-methylether] | slightly toxic

tested on: HeLa; test: MTT assay, antiproliferative activity against HeLa; type: cell-based, human; details: Homo sapiens, HeLa; MTT, 72 h, triplicate, mean ± SD
Procedure: as §1

Row | SMILES | IC50
31 | COc1cc2oc3cc(O)cc(O)c3c2c(C)c1O [Compound 1, 1,3,8-trihydroxy-7-methoxy-9-methyldibenzofuran] | 16.7 ± 0.55 µg/mL (≈ 64.1 µM)
32 | COC(=O)c1cc(OC)c(O)c2c1C[C@@H](C)OC2=O [Compound 2, (3R)-7-methoxy-5-methoxycarbonylmellein] | > 100 µg/mL
33 | C[C@@H]1Cc2cccc(O)c2C(=O)O1 [Compound 3, (−)-mellein] | > 100 µg/mL

Now from value to molecule:

Row | IC50 | SMILES
34 | > 100 µg/mL | COC(=O)c1ccc(O)c2c1C[C@@H](C)OC2=O [Compound 4, (-)-5-methoxycarbonylmellein]
35 | 57.8 ± 1.26 µg/mL (≈ 260 µM) | C[C@@H]1Cc2c(C(=O)O)ccc(O)c2C(=O)O1 [Compound 5, (−)-5-carboxymellein]
36 | 92.9 ± 2.7 µg/mL (≈ 303 µM) | COc1cc(O)cc2c1C(=O)O[C@H](C[C@H]1CCC[C@@H](C)O1)C2 [Compound 15, (3S,2′R,6′R)-asperentin-8-O-methylether]

same assay, conditions: MTT assay

Row | SMILES | toxicity in words, HeLa
37 | C[C@@H]1Cc2c(C(=O)O)ccc(O)c2C(=O)O1 [Compound 5, (−)-5-carboxymellein] | slightly toxic
38 | COc1cc(O)cc2c1C(=O)O[C@H](C[C@H]1CCC[C@@H](C)O1)C2 [Compound 15, (3S,2′R,6′R)-asperentin-8-O-methylether] | slightly toxic
